Source: the supplement of paper PMC10307832

What was measured:
Assay in all cases: relative viability (nuclei count vs DMSO), 5 days (fraction); higher = more cells survive
201T = system: 201T
Outline: (§1)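 A single step with final 0.05% Triton X-100, 1% formaldehyde and 1 ug/ml Hoechst fixed the cells and stained nuclei 5 days after treatment. Lung cancer cell lines in 1536-well plates had been treated by pin tool the day after seeding with one drug alone or a fixed anchor-drug dose plus five library-drug doses (not always all listed) in √10 steps, and nuclei were counted on 4× images. Relative viability is the ratio of nuclei in treated wells to nuclei in vehicle wells, taken as the median of duplicate plates.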

ABC-1 = system: ABC-1
Outline: as §1

CAL-12T = system: CAL-12T
Outline: as §1

EMC-BAC-2 = system: EMC-BAC-2
Outline: as §1

H3255 = system: H3255
Outline: as §1

HOP-62 = system: HOP-62
Outline: as §1

LK-2 = system: LK-2
Outline: as §1

LXF-289 = system: LXF-289
Outline: as §1

NCI-H1563 = system: NCI-H1563
Outline: as §1

NCI-H1651 = system: NCI-H1651
Outline: as §1

NCI-H1734 = system: NCI-H1734
Outline: as §1

NCI-H1755 = system: NCI-H1755
Outline: as §1

NCI-H2009 = system: NCI-H2009
Outline: as §1

NCI-H2087 = system: NCI-H2087
Outline: as §1

NCI-H2126 = system: NCI-H2126
Outline: as §1

NCI-H2170 = system: NCI-H2170
Outline: as §1

NCI-H322M = system: NCI-H322M
Outline: as §1

NCI-H441 = system: NCI-H441
Outline: as §1

NCI-H596 = system: NCI-H596
Outline: as §1

NCI-H647 = system: NCI-H647
Outline: as §1

## COCC1(CO)C(=O)C2CCN1CC2 (stereo not drawn) [PRIMA-1MET] + Cc1nc(NC(=O)N2CCC[C@H]2C(N)=O)sc1-c1ccnc(C(C)(C)C(F)(F)F)c1 [Alpelisib] (partner 2 µM)
201T; first compound 0.2 µM
  relative viability: 1.04
201T; first compound 0.6325 µM
  relative viability: 0.971
201T; first compound 2 µM
  relative viability: 0.885
201T; first compound 6.325 µM
  relative viability: 1.05
201T; first compound 20 µM
  relative viability: 1.03
ABC-1; first compound 0.2 µM
  relative viability: 1.07
ABC-1; first compound 0.6325 µM
  relative viability: 1.1
ABC-1; first compound 2 µM
  relative viability: 1.11
ABC-1; first compound 6.325 µM
  relative viability: 1.04
ABC-1; first compound 20 µM
  relative viability: 0.479
CAL-12T; first compound 0.2 µM
  relative viability: 1.19
CAL-12T; first compound 0.6325 µM
  relative viability: 1.29
CAL-12T; first compound 2 µM
  relative viability: 1.08
CAL-12T; first compound 6.325 µM
  relative viability: 1.42
CAL-12T; first compound 20 µM
  relative viability: 0.264
EMC-BAC-2; first compound 0.2 µM
  relative viability: 0.82
EMC-BAC-2; first compound 0.6325 µM
  relative viability: 0.719
EMC-BAC-2; first compound 2 µM
  relative viability: 0.666
EMC-BAC-2; first compound 6.325 µM
  relative viability: 0.775
EMC-BAC-2; first compound 20 µM
  relative viability: 0.759
H3255; first compound 0.2 µM
  relative viability: 0.845
H3255; first compound 0.6325 µM
  relative viability: 0.547
H3255; first compound 2 µM
  relative viability: 0.574
H3255; first compound 6.325 µM
  relative viability: 0.793
H3255; first compound 20 µM
  relative viability: 0.666
HOP-62; first compound 0.2 µM
  relative viability: 1.13
HOP-62; first compound 0.6325 µM
  relative viability: 0.986
HOP-62; first compound 2 µM
  relative viability: 0.732
HOP-62; first compound 6.325 µM
  relative viability: 1.18
HOP-62; first compound 20 µM
  relative viability: 0.487
LK-2; first compound 0.2 µM
  relative viability: 1.22
LK-2; first compound 0.6325 µM
  relative viability: 0.868
LK-2; first compound 2 µM
  relative viability: 0.577
LK-2; first compound 6.325 µM
  relative viability: 0.626
LK-2; first compound 20 µM
  relative viability: 0.162
LXF-289; first compound 0.2 µM
  relative viability: 1.13
LXF-289; first compound 0.6325 µM
  relative viability: 0.973
LXF-289; first compound 2 µM
  relative viability: 1.08
LXF-289; first compound 6.325 µM
  relative viability: 1.04
LXF-289; first compound 20 µM
  relative viability: 0.939
NCI-H1563; first compound 0.2 µM
  relative viability: 0.889
NCI-H1563; first compound 0.6325 µM
  relative viability: 0.904
NCI-H1563; first compound 2 µM
  relative viability: 0.915
NCI-H1563; first compound 6.325 µM
  relative viability: 1.05
NCI-H1563; first compound 20 µM
  relative viability: 0.361
NCI-H1651; first compound 0.2 µM
  relative viability: 0.904
NCI-H1651; first compound 0.6325 µM
  relative viability: 0.981
NCI-H1651; first compound 2 µM
  relative viability: 1.17
NCI-H1651; first compound 6.325 µM
  relative viability: 0.962
NCI-H1651; first compound 20 µM
  relative viability: 0.837
NCI-H1734; first compound 0.2 µM
  relative viability: 0.876
NCI-H1734; first compound 0.6325 µM
  relative viability: 0.658
NCI-H1734; first compound 2 µM
  relative viability: 0.679
NCI-H1734; first compound 6.325 µM
  relative viability: 0.73
NCI-H1734; first compound 20 µM
  relative viability: 0.3
NCI-H1755; first compound 0.2 µM
  relative viability: 0.974
NCI-H1755; first compound 0.6325 µM
  relative viability: 0.891
NCI-H1755; first compound 2 µM
  relative viability: 0.864
NCI-H1755; first compound 6.325 µM
  relative viability: 0.952
NCI-H1755; first compound 20 µM
  relative viability: 0.892
NCI-H2009; first compound 0.2 µM
  relative viability: 1.12
NCI-H2009; first compound 0.6325 µM
  relative viability: 1.15
NCI-H2009; first compound 2 µM
  relative viability: 1.23
NCI-H2009; first compound 6.325 µM
  relative viability: 1.13
NCI-H2009; first compound 20 µM
  relative viability: 0.325
NCI-H2087; first compound 0.2 µM
  relative viability: 1.23
NCI-H2087; first compound 0.6325 µM
  relative viability: 0.775
NCI-H2087; first compound 2 µM
  relative viability: 1.18
NCI-H2087; first compound 6.325 µM
  relative viability: 1.28
NCI-H2087; first compound 20 µM
  relative viability: 0.901
NCI-H2126; first compound 0.2 µM
  relative viability: 0.822
NCI-H2126; first compound 0.6325 µM
  relative viability: 0.749
NCI-H2126; first compound 2 µM
  relative viability: 0.743
NCI-H2126; first compound 6.325 µM
  relative viability: 0.848
NCI-H2126; first compound 20 µM
  relative viability: 0.706
NCI-H2170; first compound 0.2 µM
  relative viability: 0.889
NCI-H2170; first compound 0.6325 µM
  relative viability: 0.749
NCI-H2170; first compound 2 µM
  relative viability: 0.864
NCI-H2170; first compound 6.325 µM
  relative viability: 0.847
NCI-H2170; first compound 20 µM
  relative viability: 0.733
NCI-H322M; first compound 0.2 µM
  relative viability: 0.942
NCI-H322M; first compound 6.325 µM
  relative viability: 0.907
NCI-H322M; first compound 20 µM
  relative viability: 0.671
NCI-H441; first compound 0.2 µM
  relative viability: 0.648
NCI-H441; first compound 0.6325 µM
  relative viability: 0.792
NCI-H441; first compound 2 µM
  relative viability: 0.762
NCI-H441; first compound 6.325 µM
  relative viability: 0.816
NCI-H441; first compound 20 µM
  relative viability: 0.118
NCI-H596; first compound 0.2 µM
  relative viability: 0.539
NCI-H596; first compound 0.6325 µM
  relative viability: 0.446
NCI-H596; first compound 2 µM
  relative viability: 0.586
NCI-H596; first compound 6.325 µM
  relative viability: 0.673
NCI-H596; first compound 20 µM
  relative viability: 0.469
NCI-H647; first compound 0.2 µM
  relative viability: 1.33
NCI-H647; first compound 0.6325 µM
  relative viability: 1.04
NCI-H647; first compound 2 µM
  relative viability: 1.13
NCI-H647; first compound 6.325 µM
  relative viability: 1.09
NCI-H647; first compound 20 µM
  relative viability: 0.892
